Experimental data published in patent US11591331B2, “PARP1 inhibitors and uses thereof” (Xinthera, Inc., priority 2021, dated 2023).

Legend:
Test in all cases: Cell growth inhibition assay (CellTiter-Glo cell viability, 7 days)
Format in all cases: cell-based
DLD-1 parental = details: Homo sapiens, 168 h, DLD-1 parental cells
Source text: Example A: Cell Growth Inhibition Assay
The objective of this study is to evaluate the effect of invention compounds on cell proliferation through the cell viability assay in DLD-1 BRCA2(−/−) and parental isogenic pair and MDA-MB-436 (mutated BRCA1) cell lines. The CellTiter-Glo (CTG) based cell viability assay is designed to determine the number of viable cells in the culture because of compound effect, by quantifying ATP, which indicates the presence of metabolically active cells.
DLD-1 BRCA2(−/−) and parental isogenic pair were cultured in RPMI 1640 supplemented with 10% fetal bovine serum (FBS), and MDA-MB-436 cells were cultured in DMEM supplemented with 10% FBS. Both are culture at 37° C. with 5% CO2. Invention compounds were distributed to the 384 well plate (Corning, 3764) using Echo acoustic liquid handler to form a 1:3 serially diluted final concentration with top dose of 10 or 30 μM. The cells were seeded into the plate in the density of 50 cells/well (DLD-1 parental), 200 cells/well (DLD-1 BRCA2−/−), or 500 cells/well (MDA-MB-436). After a short spun, the cells were cultured in a well moisturized incubator at 37° C. with 5% CO2 for 7 days without disturbance. The cell viability was measured by CellTiter Glo 2.0 assay kit (Promega, G9243), and growth inhibition rate was calculated and plotted against final compound concentration, and the data were fitted in Xfit to generate IC50.

DLD-1 BRCA2(−/−) = details: Homo sapiens, 168 h, DLD-1 BRCA2(-/-) cells
[1] = test system: MDA-MB-436 (mutated BRCA1) cell lines; details: Homo sapiens, 168 h, MDA-MB-436 cells

Row | EC50 (DLD-1 BRCA2(−/−)) [nM] | EC50 [1] [nM] | Compound | EC50 (DLD-1 parental) [nM]
1 | 1 | 0.54 | CCc1cc2ncc(CN3CCN(c4ccc(C(=O)NCC(F)F)nc4)CC3)cc2[nH]c1=O [Example 13, N-(2,2-difluoroethyl)-5-{4-[(7-ethyl-6-oxo-5H-1,5-naphthyridin-3-yl)methyl]piperazin-1-yl} pyridine-2-carboxamide] | > 30000
2 | 1 | 0.53 | CCc1cc2ncc(CN3CCN(c4ccc(C(=O)NC)nc4C(F)F)CC3)cc2[nH]c1=O [Example 14, 6-(difluoromethyl)-5-{4-[(7-ethyl-6-oxo-5H-1,5-naphthyridin-3-yl)methyl]piperazin-1-yl}-N-methylpyridine-2-carboxamide] | > 30000
3 | 4.2 | 1.3 | CCc1cc2ncc(CN3CCC(c4ccc(C(=O)NC)nc4)CC3)cc2[nH]c1=O [Example 16, 5-(1-((7-ethyl-6-oxo-5,6-dihydro-1,5-naphthyridin-3-yl)methyl)piperidin-4-yl)-N-methylpicolinamide] | > 30000
4 | 2.1 | 1.1 | CCc1cc2ncc(CN3CCN(c4ccc(C(=O)NC)cc4C#N)CC3)cc2[nH]c1=O [Example 17, 3-cyano-4-{4-[(7-ethyl-6-oxo-5H-1,5-naphthyridin-3-yl)methyl]piperazin-1-yl}-N-methylbenzamide] | > 30000
5 | 1.5 | 1 | CCc1cc2ncc(CN3CCN4c5ccc(C(=O)NC)nc5OC[C@H]4C3)cc2[nH]c1=O [Example 22A, (R)-3-((7-ethyl-6-oxo-5,6-dihydro-1,5-naphthyridin-3-yl)methyl)-N-methyl-1,2,3,4,4a,5-hexahydropyrazino[1,2-d]pyrido[2,3-b][1,4]oxazine-8-carboxamide] | > 30000
6 | 8.7 | 4.2 | CCc1cc2ncc(CN3CC(Oc4ccc(C(=O)NC)nc4)C3)cc2[nH]c1=O [Example 25, 5-({1-[(7-ethyl-6-oxo-5H-1,5-naphthyridin-3-yl)methyl]azetidin-3-yl}oxy)-N-methylpyridine-2-carboxamide] | > 30000
7 | 220 | 58 | CCc1cc2ncc(CN3CCN(c4cnc(C(=O)NC)s4)CC3)cc2[nH]c1=O [Example 30] | 40000
8 | 48 | 15 | CNC(=O)c1ccc(N2CCN(Cc3ccc4cc(OC(F)F)c(=O)[nH]c4c3)CC2)cn1 [Example 31] | 56000
9 | 77 | 15 | CCc1cc2ncc(CN3CCN(c4ccc(-n5cnnc5)cc4)CC3)cc2[nH]c1=O [Example 32] | > 30000
10 | 6.5 | 3.1 | CNC(=O)c1ccc(N2CCN(Cc3cnc4cc(C)c(=O)[nH]c4c3)CC2)cn1 [Example 33] | > 30000
11 | 2.3 | 1.3 | [2H]C([2H])(c1cnc2cc(CC)c(=O)[nH]c2c1)N1CCN(c2cnc(C(=O)NC)c(F)c2)CC1 [Example 35] | > 30000
12 | 4.1 | 1.5 | CCc1cc2ncc(CN3CCN(c4ccc(C(=O)NC)nc4)[C@H](CF)C3)cc2[nH]c1=O [Example 68] | > 30000
13 | 4.2 | 2.5 | CNC(=O)c1ccc(N2CCN(Cc3cnc4c(c3)[nH]c(=O)c3ccoc34)CC2)cn1 [Example 72] | > 30000
14 | 320 | 9.2 | CCc1cc2ncc(CN3C[C@@H]4C(c5ccc(C(=O)NC)nc5)[C@@H]4C3)cc2[nH]c1=O (stereo partly drawn) [Example 146] | > 30000
